Measured values taken from patent US20250352555A1, “METHOD OF INCREASING IMMUNE CELL ACTIVATION AND/OR TREATING CANCER USING DIBENZOXAZEPINONES” (VASCULAR THERAPEUTICS PTY LTD, priority 2022, published 2025).

What was measured:
PD-1 = experiment: Flow cytometry with anti-PD-1 antibodies, Jurkat T cells; format: cell-based, human; conditions: for inhibition of PD-1 levels: time course (FIG. 17C)
Experimental: Flow cytometry with anti-PD-1 antibodies. Jurkat T cells were grown in 6 well plates containing RPMI 1640 and 10% FBS. After 24 h, the cells were treated with various concentrations of BT2 or BT3 for 48 h. Alternatively, the cells were incubated with 3 μM BT2 for various times. After treatment, the cells were washed with PBS, and centrifuged at 300×g for 5 min, and resuspended at 5×10^6 cells/ml. The cells were then incubated with BV421 conjugated mouse anti-human CD279 (PD-1) (BD, cat. no. 562516) or BV421 conjugated mouse IgG1 (BD, cat. no. 562438) for 45 min at 22° C. Cells were then washed twice with 1 ml of Stain Buffer, centrifuged and pellets were resuspended in 0.5 ml Stain Buffer. Stained cell suspensions were analyzed by flow cytometry using a BD FACSCanto (II).
Jurkat T cells express PD-1 (Yi et al., 2023) and are widely used as model human T cells (e.g., Repas et al., 2022). […] BT2's effects were not only dose-dependent but time-dependent. BT2 (3 μM) inhibited PD-1 levels by 50% after 24 h and by 80% after 48 h (FIG. 17C).

p38 = experiment: Western blotting time course for p38 phosphorylation, Jurkat T cells; format: cell-based, human; conditions: Western blot time course
Experimental: Western blotting. Cells were treated with compounds and times indicated and total cell lysates were prepared in RIPA buffer. Lysates (10 μg) were resolved by SDS-PAGE and transferred to Immobilon-P polyvinylidene difluoride (PVDF) membranes (Millipore, USA).
Membranes were blocked with 5% skim milk and incubated with rabbit monoclonal anti-c-Jun (Abcam, cat. no. ab32137; mouse, rat and human reactive) antibody, rabbit monoclonal anti-PD-1 (Abcam, cat. no. ab214421) antibody, mouse monoclonal β-actin antibody (Sigma-Aldrich, cat. no. A5316), anti-phospho-SAPK/JNK (Thr^183/Tyr^185) (98F2) (CST, cat. no. 4671) antibody, anti-phospho-p44/42 MAPK (ERK1/2) (Thr^202/Tyr^204) (D13.14.4E) (CST, cat. no. 4370) antibody, anti-phospho-p38 MAPK (Thr^180/Tyr^182) (D3F9) (CST, cat. no. 4511) antibody, anti-SAPK/JNK antibody (CST, cat. no. 9252), anti-p44/42 MAPK (ERK1/2) (137F5) antibody (CST, cat. no. 4695), anti-p38 MAPK antibody (CST, cat. no. 9212), anti-DUSP8 antibody (Abcam, cat. no. ab198175) or anti-c-MAF (BLR045F) antibody (Abcam, cat. no. ab243901). […] Chemiluminescence was detected using the Western Lightning Chemiluminescence system (Thermo Scientific, USA) and ImageQuant™ LAS 4000 biomolecular imager (GE Healthcare Life Sciences, USA). Band intensity in images generated with the LAS 4000 was quantified using NIH Image J. […]

total ERK = experiment: Immunohistochemistry of B16F10 tumors (Day 17), total ERK; format: in vivo, mouse; conditions: B16F10 tumors Day 17, 200 mg/kg i.p.
Excerpt: Immunohistochemical staining and analyses. Rabbit monoclonal anti-CD3 (cat. no. ab16669; mouse, rat and human reactive), rabbit monoclonal anti-PD-1 (cat. no. ab214421), rabbit monoclonal anti-CD68 (cat. no. ab125212) antibodies were obtained from Abcam, rabbit monoclonal anti-phospho-ERK (Thr^202/Tyr^204) (cat. no. CST4370), rabbit monoclonal total ERK (cat. no. CST4695), antibodies were obtained from Cell Signaling Technology. Rabbit polyclonal anti-PD-L1 (cat. no. PA5-20343) antibody was obtained from ThermoFisher.
Formalin fixed, paraffin embedded sections were prepared from tumors. Heat-induced epitope retrieval was applied to all deparaffinized sections (4 μm sections on Superfrost slides) with citrate buffer, pH 6.0 for 5 min at 110° C. […] Integrated optical density (IOD) or area of positive staining (red chromagen) was assessed using Image-Pro Plus software (Cybernetics, Bethesda, MD, USA). Positive staining was the average of quantitation in 4-8 fields of view under 20× or 40× objectives.
To assess the effect of BT2 in the same model, C57BL/6J mice bearing s.c. B16F10 tumors were administered with BT2 or vehicle (200 mg/kg or 20 ml/kg, respectively, i.p.) once a day on a 5 days-on/2 days-off schedule. […] Tumor size on Day 17 measured using callipers (FIG. 10A) correlated with isolated weighed tumors (FIG. 10B).

With CCOC(=O)Nc1ccc2c(c1)C(=O)N(CC)c1ccccc1O2 [BT2, (10-ethyl-11-oxo-10,11-dihydro-dibenzo[b,f][1,4]oxazepin-2-yl)-carbamic acid ethyl ester] the “reduction of PD-1 expression” value (PD-1; 0.1 μM, 48 h (FIG. 17A)) was 50%, the “inhibition of PD-1 levels” value (PD-1; 3 μM, 24 h) was 50% and the “reduction of PD-1 expression” value (PD-1; 3 μM, 48 h, dose response (FIG. 17A)) was 80%. For the same molecule, the “inhibition of PD-1 levels” value (PD-1; 3 μM, 48 h) was 80%, the “levels of p38 phosphorylation” value (p38) was “no effect” and the “total ERK levels in tumors (IHC)” value (total ERK) was “without affecting total ERK levels”.
